The values that follow come from publication PMC9148196 (The AAPS journal, 2021).

pIC50: −log10 of the molar value.

The target of this assay is P-glycoprotein (P-gp, MDR1) (Homo sapiens, UniProt P08183). As to the kind of experiment: basal-to-apical [3H]digoxin flux in MDCK-hMDR1-cMDR1-KO cells, dose-response. It is filed as cell-based.
Chain of P-glycoprotein (P-gp, MDR1) (P08183 whole entry): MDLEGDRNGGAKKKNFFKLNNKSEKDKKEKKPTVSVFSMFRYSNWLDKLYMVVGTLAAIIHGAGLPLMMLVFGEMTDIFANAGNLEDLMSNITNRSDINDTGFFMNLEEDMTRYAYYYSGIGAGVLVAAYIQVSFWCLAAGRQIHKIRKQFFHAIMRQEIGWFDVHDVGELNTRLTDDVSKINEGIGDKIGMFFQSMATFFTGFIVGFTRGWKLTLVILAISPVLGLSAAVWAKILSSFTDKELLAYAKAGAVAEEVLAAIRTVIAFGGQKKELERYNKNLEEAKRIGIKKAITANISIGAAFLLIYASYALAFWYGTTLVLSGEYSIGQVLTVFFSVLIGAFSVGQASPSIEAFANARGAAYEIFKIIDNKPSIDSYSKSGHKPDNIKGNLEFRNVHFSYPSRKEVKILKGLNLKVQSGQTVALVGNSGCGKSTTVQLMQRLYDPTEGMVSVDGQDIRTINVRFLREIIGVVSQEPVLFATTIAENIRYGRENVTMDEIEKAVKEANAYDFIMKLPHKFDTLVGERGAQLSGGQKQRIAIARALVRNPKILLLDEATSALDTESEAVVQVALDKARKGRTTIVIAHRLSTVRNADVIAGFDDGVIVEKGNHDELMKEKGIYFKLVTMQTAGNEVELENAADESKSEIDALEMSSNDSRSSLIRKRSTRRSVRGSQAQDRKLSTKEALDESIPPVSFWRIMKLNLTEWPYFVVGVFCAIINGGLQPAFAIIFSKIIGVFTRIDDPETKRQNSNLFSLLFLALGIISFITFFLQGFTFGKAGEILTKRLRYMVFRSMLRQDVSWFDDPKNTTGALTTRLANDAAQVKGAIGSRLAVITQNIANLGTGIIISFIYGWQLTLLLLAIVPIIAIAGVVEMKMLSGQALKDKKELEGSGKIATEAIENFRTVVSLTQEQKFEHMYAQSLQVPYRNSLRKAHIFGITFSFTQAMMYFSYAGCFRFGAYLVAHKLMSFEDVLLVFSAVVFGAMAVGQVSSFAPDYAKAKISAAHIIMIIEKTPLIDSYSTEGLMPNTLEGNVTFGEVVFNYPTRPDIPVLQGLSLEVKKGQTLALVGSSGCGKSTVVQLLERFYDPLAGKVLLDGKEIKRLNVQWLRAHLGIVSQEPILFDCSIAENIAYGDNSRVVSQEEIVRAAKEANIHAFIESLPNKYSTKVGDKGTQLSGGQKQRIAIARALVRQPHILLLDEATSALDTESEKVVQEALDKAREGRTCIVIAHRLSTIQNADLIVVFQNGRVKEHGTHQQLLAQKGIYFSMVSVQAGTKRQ

As usually defined, the pIC50 is −log10 of the IC50, conventionally taken in molar units. `CCN(Cc1cccc(S(=O)(=O)O)c1)c1ccc(C(=C2C=CC(=[N+](CC)Cc3cccc(S(=O)(=O)[O-])c3)C=C2)c2ccc(S(=O)(=O)O)cc2)cc1` [Light green SF yellowish] gave a pIC50 of 3.69.
